Measurements from paper PMC7587356, “High-Throughput Screening for Inhibitors of the SARS-CoV-2 Protease Using a FRET-Biosensor” (Molecules, 2020).
Where a name gives a salt, the structure may show the parent alone. Read-outs that look alike come from different tables or passages of the source.

Target: SARS-CoV-2 3CLpro (Severe acute respiratory syndrome coronavirus 2, UniProt P0DTD1)
Experiment: biochemical
Type: biochemical
Design: Replicate_1 / Replicate_2 / mean / mean (LOPAC_screen_w_protease): unit not given here
Conditions: for inhibition at 5 µM: 4 h
[1] = LOPAC1280 primary screen with protease, 5 µM compound, mean of the two replicates
[2] = LOPAC1280 primary screen with protease, 5 µM compound, replicate 1
[3] = LOPAC1280 primary screen with protease, 5 µM compound, replicate 2
[4] = LOPAC1280 primary screen with protease, 5 µM compound, replicate 1, read-out: Replicate_1 (LOPAC_screen_w_protease)
[5] = LOPAC1280 primary screen with protease, 5 µM compound, replicate 2, read-out: Replicate_2 (LOPAC_screen_w_protease)
[6] = LOPAC1280 primary screen with protease, 5 µM compound, mean of two replicates
[7] = sheet LOPAC_screen_w_protease, primary screen with protease, compound at 5 µM, mean of two replicates
[8] = sheet LOPAC_screen_w_protease, primary screen with protease, compound at 5 µM, replicate 1
[9] = sheet LOPAC_screen_w_protease, primary screen with protease, compound at 5 µM, replicate 2
[10] = sheet LOPAC_screen_w_protease, primary screen at 5 µM, mean of two replicates
[11] = sheet LOPAC_screen_w_protease, primary screen at 5 µM, replicate 1
[12] = sheet LOPAC_screen_w_protease, primary screen at 5 µM, replicate 2
[13] = sheet LOPAC_screen_w_protease, LOPAC1280 primary screen at 5 µM, with protease, mean of the two replicates
[14] = sheet LOPAC_screen_w_protease, LOPAC1280 primary screen at 5 µM, with protease, replicate 1
[15] = sheet LOPAC_screen_w_protease, LOPAC1280 primary screen at 5 µM, with protease, replicate 2
[16] = sheet LOPAC_screen_w_protease, LOPAC1280 primary screen with protease, 5 µM compound, mean of the two replicates
[17] = sheet LOPAC_screen_w_protease, LOPAC1280 primary screen with protease, 5 µM compound, replicate 1
[18] = sheet LOPAC_screen_w_protease, LOPAC1280 primary screen with protease, 5 µM compound, replicate 2
[19] = sheet LOPAC_screen_w_protease, primary screen with protease, 5 µM, mean of two replicates
[20] = sheet LOPAC_screen_w_protease, primary screen with protease, 5 µM, replicate 1
[21] = sheet LOPAC_screen_w_protease, primary screen with protease, 5 µM, replicate 2

`Br.CCCN1CC[C@@H]2c3cc(O)ccc3CC[C@@H]21` (racemic) [cis-(±)-8-OH-PBZI hydrobromide] was tested, and the mean (sheet LOPAC_screen_w_protease, primary screen of LOPAC1280 at 5 µM with protease, mean of the two replicates) was 4.0009, the Replicate_1 (sheet LOPAC_screen_w_protease, primary screen of LOPAC1280 at 5 µM with protease, replicate 1) was 4.218 and the Replicate_2 (sheet LOPAC_screen_w_protease, primary screen of LOPAC1280 at 5 µM with protease, replicate 2) was 3.784.
`O=C(O)[C@H]1C[C@H](C(=O)O)N1` (relative stereo) [trans-Azetidine-2,4-dicarboxylic acid] was tested, and the “mean (LOPAC_screen_w_protease)” value [1] was 2.097, the “Replicate_1 (LOPAC_screen_w_protease)” value [2] was 1.338 and the “Replicate_2 (LOPAC_screen_w_protease)” value [3] was 2.855.
With `COc1ccc2c(c1OC)C(=O)OC2C1c2cc3c(cc2CCN1C)OCO3` (single isomer, unassigned; (+)) [(+)-Hydrastine] the inhibition at 5 µM [4] was 2.51%, the inhibition at 5 µM [5] was 0.711% and the “mean (LOPAC_screen_w_protease)” value [6] was 1.61.
With `CC12NC(Cc3ccccc31)c1ccccc12.O=C(O)/C=C\C(=O)O` (single isomer, unassigned; (+)) [(+)-MK-801 hydrogen maleate] the mean [7] was 2.6873, the Replicate_1 [8] was 4.9061 and the Replicate_2 [9] was 0.4685.
With `CC(C)NCC(O)c1ccc(O)c(O)c1.Cl` (single isomer, unassigned; (-)) [(-)-Isoproterenol hydrochloride] the “mean (LOPAC_screen_w_protease)” value [1] was 2.084 and the “Replicate_2 (LOPAC_screen_w_protease)” value [3] was 1.275.
`CC(N)C(O)c1ccc(O)c(O)c1` (single isomer, unassigned; (-)) [(-)-alpha-Methylnorepinephrine] was tested, and the “mean (LOPAC screen with protease)” value [10] was 8.627, the “Replicate_1 (LOPAC screen with protease)” value [11] was 8.881 and the “Replicate_2 (LOPAC screen with protease)” value [12] was 8.372.
For `Nc1nc(Cl)nc2c1ncn2[C@@H]1O[C@H](COP(=O)(O)OP(=O)(O)OP(=O)(O)O)C(O)C1O` (stereo in doubt), the “mean (LOPAC_screen_w_protease)” value [6] was 1.575, the “Replicate_1 (LOPAC_screen_w_protease)” value [2] was 3.171 and the “Replicate_2 (LOPAC_screen_w_protease)” value [3] was -0.0216.
With `N.N.N.Nc1ncnc2c1ncn2C1OC(COP(=O)(O)OP(=O)(O)OP(=O)(O)OP(=O)(O)OC[C@H]2O[C@@H](n3cnc4c(N)ncnc43)C(O)C2O)[C@@H](O)C1O` (stereo in doubt) the “mean (LOPAC_screen_w_protease)” value [1] was 2.093, the “Replicate_1 (LOPAC_screen_w_protease)” value [2] was 3.71 and the “Replicate_2 (LOPAC_screen_w_protease)” value [3] was 0.4753.
`Nc1ncnc2c1nc(Sc1ccc(Cl)cc1)n2C1OC2COP(=O)(O)OC2C1O` (stereo in doubt) [8-(4-Chlorophenylthio)-cAMP sodium] gave a mean [13] of 0.5451, a Replicate_1 [14] of 0.8706 and a Replicate_2 [15] of 0.2195.
In the case of `CCCCC1(C2CCCC2)Cc2cc(OCC(=O)O)c(Cl)c(Cl)c2C1=O` (stereo in doubt) [R(+)-Butylindazone], the mean (sheet LOPAC_screen_w_protease, primary screen with protease, mean of two replicates) is reported as 2.217, the Replicate_1 (sheet LOPAC_screen_w_protease, primary screen with protease, replicate 1) is reported as 3.715 and the Replicate_2 (sheet LOPAC_screen_w_protease, primary screen with protease, replicate 2) is reported as 0.7192.
`CCn1c(=O)c2nc(-c3ccccc3)[nH]c2n(CC)c1=O` [1,3-Diethyl-8-phenylxanthine] was tested, and the inhibition at 5 µM (sheet LOPAC_screen_w_protease, primary screen of LOPAC1280 at 5 µM with protease, mean of the two replicates, read-out: mean) was 3.47%, the inhibition at 5 µM (sheet LOPAC_screen_w_protease, primary screen of LOPAC1280 at 5 µM with protease, replicate 1, read-out: Replicate_1) was 3.04% and the inhibition at 5 µM (sheet LOPAC_screen_w_protease, primary screen of LOPAC1280 at 5 µM with protease, replicate 2, read-out: Replicate_2) was 3.9%.
`Cn1c(=O)c2[nH]c(-c3ccccc3)nc2n(C)c1=O` [1,3-Dimethyl-8-phenylxanthine] showed a mean [16] of 6.36, a Replicate_1 [17] of 5.626 and a Replicate_2 [18] of 7.0953.
Compound `CCCn1c(=O)c2c(ncn2C)n(CCC)c1=O` [1,3-Dipropyl-7-methylxanthine] has a mean [7] of 3.018, a Replicate_1 [8] of 3.463 and a Replicate_2 [9] of 2.572.
`CCCn1c(=O)c2[nH]c(-c3ccc(S(=O)(=O)O)cc3)nc2n(CCC)c1=O` [1,3-Dipropyl-8-p-sulfophenylxanthine] was tested, and the “mean (LOPAC screen with protease)” value [10] was 7.8949, the “Replicate_1 (LOPAC screen with protease)” value [11] was 7.582 and the “Replicate_2 (LOPAC screen with protease)” value [12] was 8.208.
With `Br.Br.N=C(N)SCCc1cccc(CCSC(=N)N)c1` [1,3-PBIT dihydrobromide] the “mean (LOPAC_screen_w_protease)” value [6] was 1.415, the “Replicate_1 (LOPAC_screen_w_protease)” value [2] was 1.3545 and the “Replicate_2 (LOPAC_screen_w_protease)” value [3] was 1.476.
In the case of `OC[C@H]1NC[C@@H](O)[C@@H]1O` [1,4-Dideoxy-1,4-imino-D-arabinitol], the “mean (LOPAC_screen_w_protease)” value [6] is reported as 1.627, the “Replicate_1 (LOPAC_screen_w_protease)” value [2] is reported as 1.388 and the “Replicate_2 (LOPAC_screen_w_protease)” value [3] is reported as 1.866.
For `Br.Br.N=C(N)SCCc1ccc(CCSC(=N)N)cc1` [1,4-PBIT dihydrobromide], the mean [13] was 0.7618, the Replicate_1 [14] was 0.8182 and the Replicate_2 [15] was 0.7055.
In the case of `Oc1cccc2c(O)nccc12` [1,5-Isoquinolinediol], the “mean (LOPAC_screen_w_protease)” value [1] is reported as 2.037, the “Replicate_1 (LOPAC_screen_w_protease)” value [2] is reported as 1.193 and the “Replicate_2 (LOPAC_screen_w_protease)” value [3] is reported as 2.882.
In the case of `Cn1c(=O)[nH]c2ncn(C)c2c1=O` [1,7-Dimethylxanthine], the inhibition at 5 µM [4] is reported as 1.95%, the inhibition at 5 µM [5] is reported as 1.66% and the “mean (LOPAC_screen_w_protease)” value [1] is reported as 1.802.
`NCCCCCCCCCCN` [1,10-Diaminodecane] showed an inhibition at 5 µM (sheet LOPAC_screen_w_protease, primary screen with protease, mean of two replicates, read-out: mean) of 2.36%, an inhibition at 5 µM (sheet LOPAC_screen_w_protease, primary screen with protease, replicate 1, read-out: Replicate_1) of 3.01% and an inhibition at 5 µM (sheet LOPAC_screen_w_protease, primary screen with protease, replicate 2, read-out: Replicate_2) of 1.71%.
Work on `O.c1cnc2c(c1)ccc1cccnc12` [1,10-Phenanthroline monohydrate] yielded a mean [19] of 0.3766, a Replicate_1 [20] of -0.05956 and a Replicate_2 [21] of 0.8127.
With `Cl.c1ccc2c(N3CCNCC3)cccc2c1` [1-(1-Naphthyl)piperazine hydrochloride] the “mean (LOPAC_screen_w_protease)” value [6] was 1.563, the “Replicate_1 (LOPAC_screen_w_protease)” value [2] was 4.027 and the “Replicate_2 (LOPAC_screen_w_protease)” value [3] was -0.9014.
Work on `Oc1ccc(Cn2cc[nH]c2=S)cc1` [1-(4-Hydroxybenzyl)imidazole-2-thiol] yielded an inhibition at 5 µM (sheet LOPAC_screen_w_protease, primary screen at 5 µM, mean of two replicates, read-out: mean (LOPAC screen with protease)) of 35.7%, an inhibition at 5 µM (sheet LOPAC_screen_w_protease, primary screen at 5 µM, replicate 1, read-out: Replicate_1 (LOPAC screen with protease)) of 39.5% and an inhibition at 5 µM (sheet LOPAC_screen_w_protease, primary screen at 5 µM, replicate 2, read-out: Replicate_2 (LOPAC screen with protease)) of 31.9%.
For `Nn1nnc2ccccc21` [1-Aminobenzotriazole], the mean (sheet LOPAC_screen_w_protease, LOPAC1280 at 5 µM, mean of two replicates) was 1.253, the Replicate_1 (sheet LOPAC_screen_w_protease, LOPAC1280 at 5 µM, replicate 1) was 1.647 and the Replicate_2 (sheet LOPAC_screen_w_protease, LOPAC1280 at 5 µM, replicate 2) was 0.8595.
For `OC[C@H]1NC[C@H](O)[C@@H](O)[C@@H]1O` [1-Deoxynojirimycin hydrochloride], the inhibition at 5 µM (sheet LOPAC_screen_w_protease, primary screen with protease, compound at 5 µM, mean of two replicates, read-out: mean) was 2.78%, the inhibition at 5 µM (sheet LOPAC_screen_w_protease, primary screen with protease, compound at 5 µM, replicate 1, read-out: Replicate_1) was 4.02% and the inhibition at 5 µM (sheet LOPAC_screen_w_protease, primary screen with protease, compound at 5 µM, replicate 2, read-out: Replicate_2) was 1.54%.
Work on `Cl.Cl.Cn1cnc(CCN)c1` [1-Methylhistamine dihydrochloride] yielded a mean [16] of 4.368, a Replicate_1 [17] of 3.059 and a Replicate_2 [18] of 5.677.
Compound `Cn1ccnc1` [1-Methylimidazole] has an inhibition at 5 µM (sheet LOPAC_screen_w_protease, LOPAC1280 primary screen with protease, 5 µM compound, mean of the two replicates, read-out: mean) of 4.84%, an inhibition at 5 µM (sheet LOPAC_screen_w_protease, LOPAC1280 primary screen with protease, 5 µM compound, replicate 1, read-out: Replicate_1) of 4.68% and an inhibition at 5 µM (sheet LOPAC_screen_w_protease, LOPAC1280 primary screen with protease, 5 µM compound, replicate 2, read-out: Replicate_2) of 4.99%.
With `S=C(Nc1ccccc1)Nc1nccs1` [1-Phenyl-3-(2-thiazolyl)-2-thiourea] the “mean (LOPAC screen with protease)” value [10] was 7.407, the “Replicate_1 (LOPAC screen with protease)” value [11] was 6.341 and the “Replicate_2 (LOPAC screen with protease)” value [12] was 8.4724.
`N=C(N)NC(=N)Nc1ccccc1` [1-Phenylbiguanide] gave a mean [13] of 0.7649, a Replicate_1 [14] of -0.09991 and a Replicate_2 [15] of 1.6298.
Compound `FC(F)(F)c1ccccc1-n1ccnc1` [1-[2-(Trifluoromethyl)phenyl]imidazole] has a mean [19] of -0.5336, a Replicate_1 [20] of 0.8297 and a Replicate_2 [21] of -1.897.
In the case of `Cc1cn([C@H]2C=C[C@@H](CO)O2)c(=O)[nH]c1=O` [2',3'-didehydro-3'-deoxythymidine], the “mean (LOPAC_screen_w_protease)” value [1] is reported as 1.906, the “Replicate_1 (LOPAC_screen_w_protease)” value [2] is reported as 2.073 and the “Replicate_2 (LOPAC_screen_w_protease)” value [3] is reported as 1.738.
`Nc1ccn([C@H]2CC[C@@H](CO)O2)c(=O)n1` [2',3'-dideoxycytidine] gave an inhibition at 5 µM (sheet LOPAC_screen_w_protease, LOPAC1280 at 5 µM, mean of two replicates, read-out: mean) of 1.06%, an inhibition at 5 µM (sheet LOPAC_screen_w_protease, LOPAC1280 at 5 µM, replicate 1, read-out: Replicate_1) of 1.73% and an inhibition at 5 µM (sheet LOPAC_screen_w_protease, LOPAC1280 at 5 µM, replicate 2, read-out: Replicate_2) of 0.388%.
